Measurements from ChEMBL document CHEMBL4308841, “Synthesis, in vitro antiproliferative activity, and kinase inhibitory effects of pyrazole-containing diarylureas and diarylamides” (Eur J Med Chem, 2018).

tested on: NCI-H522; experiment: Growth inhibition of human NCI-H522 cells assessed as cell growth at 10 uM incubated for 48 hrs by sulforhodamine B assay relative to control; assay type: functional; settings: NCI-H522, 48 h, read-out: Activity

Structure (SMILES)	growth at 10 µM [%]
COc1cc(Cl)cc(-c2nn(-c3cccc(NC(=O)Nc4cccc(C(F)(F)F)c4)c3)cc2-c2ccncc2)c1	-18.6

tested on: HCT-15; experiment: Growth inhibition of human HCT15 cells assessed as cell growth at 1 uM incubated for 48 hrs by sulforhodamine B assay relative to control; assay type: functional; settings: HCT-15, 48 h, read-out: Activity

Structure (SMILES)	growth at 1 µM [%]
COc1cc(Cl)cc(-c2nn(-c3cccc(NC(=O)Nc4cccc(C(F)(F)F)c4)c3)cc2-c2ccncc2)c1	57

tested on: SF-268; experiment: Growth inhibition of human SF268 cells assessed as cell growth at 0.1 uM incubated for 48 hrs by sulforhodamine B assay relative to control; assay type: functional; settings: SF-268, 48 h, read-out: Activity

Structure (SMILES)	growth at 0.1 µM [%]
COc1cc(Cl)cc(-c2nn(-c3cccc(NC(=O)Nc4cccc(C(F)(F)F)c4)c3)cc2-c2ccncc2)c1	94

tested on: SF-268; experiment: Growth inhibition of human SF268 cells assessed as cell growth at 1 uM incubated for 48 hrs by sulforhodamine B assay relative to control; assay type: functional; settings: SF-268, 48 h, read-out: Activity

Structure (SMILES)	growth at 1 µM [%]
COc1cc(Cl)cc(-c2nn(-c3cccc(NC(=O)Nc4cccc(C(F)(F)F)c4)c3)cc2-c2ccncc2)c1	79

tested on: UO-31; experiment: Growth inhibition of human UO31 cells assessed as cell growth at 100 uM incubated for 48 hrs by sulforhodamine B assay relative to control; assay type: functional; settings: UO-31, 48 h, read-out: Activity

Structure (SMILES)	growth at 100 µM [%]
COc1cc(Cl)cc(-c2nn(-c3cccc(NC(=O)Nc4cccc(C(F)(F)F)c4)c3)cc2-c2ccncc2)c1	-20

tested on: T47D; experiment: Growth inhibition of human T47D cells assessed as cell growth at 0.01 uM incubated for 48 hrs by sulforhodamine B assay relative to control; assay type: functional; settings: read-out: Activity

Structure (SMILES)	growth at 0.01 µM [%]
COc1cc(Cl)cc(-c2nn(-c3cccc(NC(=O)Nc4cccc(C(F)(F)F)c4)c3)cc2-c2ccncc2)c1	97

tested on: BT-549; experiment: Growth inhibition of human BT549 cells assessed as cell growth at 1 uM incubated for 48 hrs by sulforhodamine B assay relative to control; assay type: functional; settings: BT-549, 48 h, read-out: Activity

Structure (SMILES)	growth at 1 µM [%]
COc1cc(Cl)cc(-c2nn(-c3cccc(NC(=O)Nc4cccc(C(F)(F)F)c4)c3)cc2-c2ccncc2)c1	93

tested on: MCF7; experiment: Growth inhibition of human MCF7 cells incubated for 48 hrs by sulforhodamine B assay; assay type: functional, cell-based; settings: MCF7, 48 h, read-out: GI50

Structure (SMILES)	GI50 [µM]
COc1cc(Cl)cc(-c2nn(-c3cccc(NC(=O)Nc4cccc(C(F)(F)F)c4)c3)cc2-c2ccncc2)c1	1.48

same assay, conditions: MCF7, 48 h, read-out: LC50

Structure (SMILES)	LC50 [µM]
COc1cc(Cl)cc(-c2nn(-c3cccc(NC(=O)Nc4cccc(C(F)(F)F)c4)c3)cc2-c2ccncc2)c1	> 100

same assay, conditions: MCF7, 48 h, read-out: TGI

Structure (SMILES)	TGI [µM]
COc1cc(Cl)cc(-c2nn(-c3cccc(NC(=O)Nc4cccc(C(F)(F)F)c4)c3)cc2-c2ccncc2)c1	75.7

same assay, conditions: MCF7, 48 h, read-out: pGI50 (converted)

Structure (SMILES)	GI50 [µM]
COc1cc(Cl)cc(-c2nn(-c3cccc(NC(=O)Nc4cccc(C(F)(F)F)c4)c3)cc2-c2ccncc2)c1	1.48

same assay, conditions: MCF7, 48 h, read-out: pLC50 (converted)

Structure (SMILES)	LC50 [µM]
COc1cc(Cl)cc(-c2nn(-c3cccc(NC(=O)Nc4cccc(C(F)(F)F)c4)c3)cc2-c2ccncc2)c1	> 100

same assay, conditions: MCF7, 48 h, read-out: pTGI (converted)

Structure (SMILES)	TGI [µM]
COc1cc(Cl)cc(-c2nn(-c3cccc(NC(=O)Nc4cccc(C(F)(F)F)c4)c3)cc2-c2ccncc2)c1	7.59

tested on: COLO 205; experiment: Growth inhibition of human COLO205 cells assessed as cell growth at 100 uM incubated for 48 hrs by sulforhodamine B assay relative to control; assay type: functional; settings: COLO 205, 48 h, read-out: Activity

Structure (SMILES)	growth at 100 µM [%]
COc1cc(Cl)cc(-c2nn(-c3cccc(NC(=O)Nc4cccc(C(F)(F)F)c4)c3)cc2-c2ccncc2)c1	-95

tested on: 786-0; experiment: Growth inhibition of human 786-0 cells assessed as cell growth at 100 uM incubated for 48 hrs by sulforhodamine B assay relative to control; assay type: functional; settings: 786-0, 48 h, read-out: Activity

Structure (SMILES)	growth at 100 µM [%]
COc1cc(Cl)cc(-c2nn(-c3cccc(NC(=O)Nc4cccc(C(F)(F)F)c4)c3)cc2-c2ccncc2)c1	-57

tested on: M14; experiment: Growth inhibition of human M14 cells assessed as cell growth at 100 uM incubated for 48 hrs by sulforhodamine B assay relative to control; assay type: functional; settings: M14, 48 h, read-out: Activity

Structure (SMILES)	growth at 100 µM [%]
COc1cc(Cl)cc(-c2nn(-c3cccc(NC(=O)Nc4cccc(C(F)(F)F)c4)c3)cc2-c2ccncc2)c1	-78

tested on: PC-3; experiment: Growth inhibition of human PC3 cells assessed as cell growth at 100 uM incubated for 48 hrs by sulforhodamine B assay relative to control; assay type: functional; settings: PC-3, 48 h, read-out: Activity

Structure (SMILES)	growth at 100 µM [%]
COc1cc(Cl)cc(-c2nn(-c3cccc(NC(=O)Nc4cccc(C(F)(F)F)c4)c3)cc2-c2ccncc2)c1	-35

tested on: HT-29; experiment: Growth inhibition of human HT-29 cells assessed as cell growth at 0.01 uM incubated for 48 hrs by sulforhodamine B assay relative to control; assay type: functional; settings: HT-29, 48 h, read-out: Activity

Structure (SMILES)	growth at 0.01 µM [%]
COc1cc(Cl)cc(-c2nn(-c3cccc(NC(=O)Nc4cccc(C(F)(F)F)c4)c3)cc2-c2ccncc2)c1	102

tested on: SNB-75; experiment: Growth inhibition of human SNB75 cells assessed as cell growth at 100 uM incubated for 48 hrs by sulforhodamine B assay relative to control; assay type: functional; settings: SNB-75, 48 h, read-out: Activity

Structure (SMILES)	growth at 100 µM [%]
COc1cc(Cl)cc(-c2nn(-c3cccc(NC(=O)Nc4cccc(C(F)(F)F)c4)c3)cc2-c2ccncc2)c1	-17

tested on: HCC 2998; experiment: Growth inhibition of human HCC2998 cells assessed as cell growth at 0.01 uM incubated for 48 hrs by sulforhodamine B assay relative to control; assay type: functional; settings: HCC 2998, 48 h, read-out: Activity

Structure (SMILES)	growth at 0.01 µM [%]
COc1cc(Cl)cc(-c2nn(-c3cccc(NC(=O)Nc4cccc(C(F)(F)F)c4)c3)cc2-c2ccncc2)c1	98

tested on: SF-295; experiment: Growth inhibition of human SF295 cells incubated for 48 hrs by sulforhodamine B assay; assay type: functional, cell-based; settings: SF-295, 48 h, read-out: GI50

Structure (SMILES)	GI50 [µM]
COc1cc(Cl)cc(-c2nn(-c3cccc(NC(=O)Nc4cccc(C(F)(F)F)c4)c3)cc2-c2ccncc2)c1	0.753

same assay, conditions: SF-295, 48 h, read-out: LC50 (the source's name)

Structure (SMILES)	CC50 [µM]
COc1cc(Cl)cc(-c2nn(-c3cccc(NC(=O)Nc4cccc(C(F)(F)F)c4)c3)cc2-c2ccncc2)c1	75.9

same assay, conditions: SF-295, 48 h, read-out: TGI

Structure (SMILES)	TGI [µM]
COc1cc(Cl)cc(-c2nn(-c3cccc(NC(=O)Nc4cccc(C(F)(F)F)c4)c3)cc2-c2ccncc2)c1	45.2

same assay, conditions: SF-295, 48 h, read-out: pGI50 (converted)

Structure (SMILES)	GI50 [µM]
COc1cc(Cl)cc(-c2nn(-c3cccc(NC(=O)Nc4cccc(C(F)(F)F)c4)c3)cc2-c2ccncc2)c1	0.776

same assay, conditions: SF-295, 48 h, read-out: pLC50 (the source's name) (converted)

Structure (SMILES)	CC50 [µM]
COc1cc(Cl)cc(-c2nn(-c3cccc(NC(=O)Nc4cccc(C(F)(F)F)c4)c3)cc2-c2ccncc2)c1	77.6

same assay, conditions: SF-295, 48 h, read-out: pTGI (converted)

Structure (SMILES)	TGI [µM]
COc1cc(Cl)cc(-c2nn(-c3cccc(NC(=O)Nc4cccc(C(F)(F)F)c4)c3)cc2-c2ccncc2)c1	4.57
